The values that follow come from patent US9469615B2, “Quinoxalines and AZA-quinoxalines as CRTH2 receptor modulators” (Merck Sharp & Dohme Corp., priority 2010, dated 2016).

In the experiment the target is T1, hCRTH2 (Homo sapiens, UniProt Q9Y5Y4).
T1 construct: expressed in transfected cells; host or cells: HEK (human embryonic kidney) cells expressing hCRTH2; membrane preparation
T1 sequence (Q9Y5Y4 1-395): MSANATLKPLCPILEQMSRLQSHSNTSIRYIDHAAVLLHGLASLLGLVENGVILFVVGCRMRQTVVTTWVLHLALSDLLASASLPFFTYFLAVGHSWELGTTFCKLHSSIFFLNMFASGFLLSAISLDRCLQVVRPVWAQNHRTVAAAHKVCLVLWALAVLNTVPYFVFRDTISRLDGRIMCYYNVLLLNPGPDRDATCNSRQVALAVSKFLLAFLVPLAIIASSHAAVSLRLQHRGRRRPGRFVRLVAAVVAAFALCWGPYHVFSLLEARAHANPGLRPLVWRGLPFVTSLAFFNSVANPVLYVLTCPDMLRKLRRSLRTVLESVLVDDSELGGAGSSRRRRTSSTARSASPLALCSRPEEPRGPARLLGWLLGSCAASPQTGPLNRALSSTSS
In words: Radioligand binding assay ([3H]PGD2 competition, HEK-hCRTH2 membranes). The method in brief:
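Filter-bound radioactivity was counted by scintillation after 60 min incubations at room temperature. Membranes (8-20 μg) from HEK cells expressing hCRTH2 competed test ligands against 3.0 nM [3H]PGD2 in Tris-HCl pH 7.4 buffer with EDTA and 2 mM MnCl2; 10 μM PGD2 set non-specific binding.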

In turn, `O=C(O)CCCCc1nc2cc(C(=O)NC3CC(=O)Nc4ccccc43)ccc2nc1-c1ccc(F)cc1` (stereo not shown) [compound 352, 5-(3-(4-fluorophenyl)-7-((2-oxo-1,2,3,4-tetrahydroquinolin-4-yl)carbamoyl)quinoxalin-2-yl)pentanoic acid] had a Ki ([3H]PGD2 competition, Table B) of 2.1 to 20 nM.

With `O=C(O)CCCCc1nc2cc(C(=O)N3CCC4(CC3)CNC(=O)c3ccccc34)ccc2nc1-c1ccc(F)cc1` [compound 353, 5-(3-(4-fluorophenyl)-7-(1-oxo-2,3-dihydro-1H-spiro[isoquinoline-4,4′-piperidin]-1′-ylcarbonyl)quinoxalin-2-yl)pentanoic acid], the Ki ([3H]PGD2 competition, Table B) was in the range of 2.1 to 20 nM. The molecule `O=C(O)CCCCc1nc2cc(C(=O)N[C@@H]3CCCc4ccncc43)ccc2nc1-c1ccc(F)cc1` [compound 354, (R)-5-(3-(4-fluorophenyl)-7-((5,6,7,8-tetrahydroisoquinolin-8-yl)carbamoyl)quinoxalin-2-yl)pentanoic acid] returned an inhibition constant (Ki) ([3H]PGD2 competition, Table B) of 20.1 to 200 nM. For the setting “[3H]PGD2 competition, Table B”, `O=C(O)CCCCc1nc2cc(C(=O)N[C@@H]3CCSc4ccccc43)ccc2nc1-c1ccc(F)cc1` [compound 355, (R)-5-(3-(4-fluorophenyl)-7-(thiochroman-4-ylcarbamoyl)quinoxalin-2-yl)pentanoic acid] showed an inhibition constant (Ki) of 2.1 to 20 nM. The same measure, in the same setting: for `O=C(O)CCCCc1nc2cc(C(=O)N3CCC(n4c(=O)[nH]c5ccccc54)CC3)ccc2nc1-c1ccc(F)cc1` [compound 356, 5-(3-(4-fluorophenyl)-7-(4-(2-oxo-2,3-dihydro-1H-benzo[d]imidazol-1-yl)piperidine-1-carbonyl)quinoxalin-2-yl)pentanoic acid] the value was 20.1 to 200 nM; for `O=C(O)CCCCc1nc2cc(C(=O)N3CCN(c4ccccn4)CC3)ccc2nc1-c1ccc(F)cc1` [compound 357, 5-(3-(4-fluorophenyl)-7-(4-(pyridin-2-yl)piperazine-1-carbonyl)quinoxalin-2-yl)pentanoic acid], 2.1 to 20 nM; for `N#Cc1cccnc1N1CCN(C(=O)c2ccc3nc(-c4ccc(F)cc4)c(CCCCC(=O)O)nc3c2)CC1` [compound 358, 5-(7-(4-(3-cyanopyridin-2-yl)piperazine-l-carbonyl)-3-(4-fluorophenyl)quinoxalin-2-yl)pentanoic acid], 2.1 to 20 nM. With `N#Cc1ccccc1N1CCN(C(=O)c2ccc3nc(-c4ccc(F)cc4)c(CCCCC(=O)O)nc3c2)CC1` [compound 359, 5-(7-(4-(2-cyanophenyl)piperazine-1-carbonyl)-3-(4-fluorophenyl)quinoxalin-2-yl)pentanoic acid], where the note is “[3H]PGD2 competition, Table B”, the Ki was in the range of 2.1 to 20 nM.

Where the note is “[3H]PGD2 competition, Table B”, `O=C(O)CCCCc1nc2cc(C(=O)N3CCN(c4cnccn4)CC3)ccc2nc1-c1ccc(F)cc1` [compound 360, 5-(3-(4-fluorophenyl) 7-(4-(pyrazin-2-yl)piperazine-1-carbonyl)quinoxalin-2-yl)pentanoic acid] registered a Ki of 20.1 to 200 nM. The molecule `COc1ccccc1C1CCN(C(=O)c2ccc3nc(-c4ccc(F)cc4)c(CCCCC(=O)O)nc3c2)CC1` [compound 361, 5-(3-(4-fluorophenyl)-7-(4-(2-methoxyphenyl)piperidine-1-carbonyl)quinoxalin-2-yl)pentanoic acid] returned a Ki ([3H]PGD2 competition, Table B) of 2.1 to 20 nM. The molecule `O=C(O)CCCCc1nc2cc(C(=O)N3CCC4(CC3)OCc3ccccc34)ccc2nc1-c1ccc(F)cc1` [compound 362, 5-(3-(4-fluorophenyl)-7-(3H-spiro[isobenzofuran-1,4′-piperidin]-1′-ylcarbonyl)quinoxalin-2-yl)pentanoic acid] returned a Ki ([3H]PGD2 competition, Table B) of 2.1 to 20 nM. Take `O=C(O)CCCCc1nc2cc(C(=O)N3CCN(c4ccccc4C(F)(F)F)CC3)ccc2nc1-c1ccc(F)cc1` [compound 363, 5-(3-(4-fluorophenyl)-7-(4-(2-(trifluoromethyl)phenyl)piperazine-1-carbonyl)quinoxalin-2-yl)pentanoic acid]: the Ki ([3H]PGD2 competition, Table B) was in the range of 2.1 to 20 nM. Regarding `O=C(O)CCCCc1nc2cc(C(=O)N3CCN(c4ccccc4Cl)CC3)ccc2nc1-c1ccc(F)cc1` [compound 364, 5-(7-(4-(2-chlorophenyl)piperazine-1-carbonyl)-3-(4-fluorophenyl)quinoxalin-2-yl)pentanoic acid], the Ki ([3H]PGD2 competition, Table B) was in the range of 2.1 to 20 nM. Take `Cc1ccccc1N1CCN(C(=O)c2ccc3nc(-c4ccc(F)cc4)c(CCCCC(=O)O)nc3c2)CC1` [compound 365, 5-(3-(4-fluorophenyl)-7-(4-(o-tolyl)piperazine-1-carbonyl)quinoxalin-2-yl)pentanoic acid]: the Ki ([3H]PGD2 competition, Table B) fell in the range of 2.1 to 20 nM. Turning to `Cc1cccc(N2CCN(C(=O)c3ccc4nc(-c5ccc(F)cc5)c(CCCCC(=O)O)nc4c3)CC2)c1` [compound 366, 5-(3-(4-fluorophenyl)-7-(4-(m-tolyl)piperazine-1-carbonyl)quinoxalin-2-yl)pentanoic acid], for the setting “[3H]PGD2 competition, Table B”, the inhibition constant (Ki) is 2.1 to 20 nM. The molecule `COc1ccc(N2CCN(C(=O)c3ccc4nc(-c5ccc(F)cc5)c(CCCCC(=O)O)nc4c3)CC2)cc1` [compound 367, 5-(3-(4-fluorophenyl)-7-(4-(4-methoxyphenyl)piperazine-1-carbonyl)quinoxalin-2-yl)pentanoic acid] came in with a Ki ([3H]PGD2 competition, Table B) of 2.1 to 20 nM. On to `Cc1cnccc1N1CCN(C(=O)c2ccc3nc(-c4ccc(F)cc4)c(CCCCC(=O)O)nc3c2)CC1` [compound 368, 5-(3-(4-fluorophenyl)-7-(4-(3-methylpyridin-4-yl)piperazine-1-carbonyl)quinoxalin-2-yl)pentanoic acid], for which the Ki was 21.4 nM ([3H]PGD2 binding, values in text) and 20.1 to 200 nM ([3H]PGD2 competition, Table B). Take `Cc1ccc(N2CCN(C(=O)c3ccc4nc(-c5ccc(F)cc5)c(CCCCC(=O)O)nc4c3)CC2)cc1` [compound 369, 5-(3-(4-fluorophenyl)-7-(4-(p-tolyl)piperazine-1-carbonyl)quinoxalin-2-yl)pentanoic acid]: the Ki ([3H]PGD2 competition, Table B) is 2.1 to 20 nM. Take `O=C(O)CCCCc1nc2cc(C(=O)N[C@@H]3CCCc4cccnc43)ccc2nc1-c1ccccc1` [compound 370, (R)-8-(3-(4-carboxybutyl)-2-phenylquinoxaline-6-carboxamido)-5,6,7,8-tetrahydroquinolin-1-ium 2,2,2-trifluoroacetic acid]: the Ki ([3H]PGD2 competition, Table B) fell in the range of 201 to 700 nM. Turning to `O=C(O)CCCCc1nc2cc(C(=O)N[C@H]3CCCc4cccnc43)ccc2nc1-c1ccccc1` [compound 371, (S)-8-(3-(4-carboxybutyl)-2-phenylquinoxaline-6-carboxamido)-5,6,7,8-tetrahydroquinolin-1-ium 2,2,2-trifluoroacetic acid], the Ki ([3H]PGD2 competition, Table B) lay in the range of 2.1 to 20 nM. With `COc1ccc(C2CN(C(=O)c3ccc4nc(-c5ccc(F)cc5)c(CCCCC(=O)O)nc4c3)C2)cc1` [compound 372, 5-(3-(4-fluorophenyl)-7-(3-(4-methoxyphenyl)azetidine-1-carbonyl)quinoxalin-2-yl)pentanoic acid], for the setting “[3H]PGD2 competition, Table B”, the Ki lay in the range of 2.1 to 20 nM.

Where the note is “[3H]PGD2 competition, Table B”, `COc1cccc(C2CN(C(=O)c3ccc4nc(-c5ccc(F)cc5)c(CCCCC(=O)O)nc4c3)C2)c1` [compound 373, 5-(3-(4-fluorophenyl)-7-(3-(3-methoxyphenyl)azetidine-1-carbonyl)quinoxalin-2-yl)pentanoic acid] had a Ki of 2.1 to 20 nM. `C[C@@H](NC(=O)c1ccc2nc(-c3ccc(Cl)cc3)c(CCCCC(=O)O)nc2c1)c1ccc(F)c(F)c1` [compound 374, (R)-5-(3-(4-chlorophenyl)-7-((1-(3,4-difluorophenyl)ethyl)carbamoyl)quinoxalin-2-yl)pentanoic acid] showed a Ki ([3H]PGD2 competition, Table B) of 0.1 to 2 nM.

Turning to `C[C@H](NC(=O)c1ccc2nc(-c3ccc(Cl)cc3)c(CCCCC(=O)O)nc2c1)c1ccc(F)c(F)c1` [compound 375, (S)-5-(3-(4-chlorophenyl)-7-((1-(3,4-difluorophenyl)ethyl)carbamoyl)quinoxalin-2-yl)pentanoic acid], the inhibition constant (Ki) ([3H]PGD2 competition, Table B) fell in the range of 0.1 to 2 nM. In turn, `CC[C@@H](NC(=O)c1ccc2nc(-c3ccc(Cl)cc3)c(CCCCC(=O)O)nc2c1)c1ccc(F)cc1` [compound 376, (R)-5-(3-(4-chlorophenyl)-7-((1-(4-fluorophenyl)propyl)carbamoyl)quinoxalin-2-yl)pentanoic acid] yielded a Ki ([3H]PGD2 competition, Table B) of 2.1 to 20 nM. Under “[3H]PGD2 competition, Table B”, `CC[C@H](NC(=O)c1ccc2nc(-c3ccc(Cl)cc3)c(CCCCC(=O)O)nc2c1)c1ccc(F)cc1` [compound 377] yielded a Ki of 2.1 to 20 nM.

The molecule `CN(C(=O)c1ccc2nc(-c3ccccc3)c(CCCCC(=O)O)nc2c1)[C@@H]1CCCc2ccccc21` [compound 378, (R)-5-(7-(methyl(1,2,3,4-tetrahydronaphthalen-1-yl)carbamoyl)-3-phenylquinoxalin-2-yl)pentanoic acid] displayed an inhibition constant (Ki) ([3H]PGD2 competition, Table B) of 20.1 to 200 nM. Under “[3H]PGD2 competition, Table B”, `CN(C(=O)c1ccc2nc(-c3ccccc3)c(CCCCC(=O)O)nc2c1)[C@@H]1CCCc2cc(F)ccc21` [compound 379, (R)-5-(7-((6-fluoro-1,2,3,4-tetrahydronaphthalen-1-yl)(methyl)carbamoyl)-3-phenylquinoxalin-2-yl)pentanoic acid] showed a Ki of 2.1 to 20 nM.

Turning to `CN(C(=O)c1ccc2nc(-c3ccccc3)c(CCCCC(=O)O)nc2c1)[C@@H]1CCCc2cc(Cl)ccc21` [compound 380, (R)-5-(7-((6-chloro-1,2,3,4-tetrahydronaphthalen-1-yl)(methyl)carbamoyl)-3-phenylquinoxalin-2-yl)pentanoic acid], the Ki ([3H]PGD2 competition, Table B) fell in the range of 2.1 to 20 nM. Molecule `O=C(O)CCCCc1nc2cc(C(=O)N[C@@H]3CCc4cc(F)ccc43)ccc2nc1-c1ccc(Cl)cc1` [compound 381, (R)-5-(3-(4-chlorophenyl)-7-((5-fluoro-2,3-dihydro-1H-inden-1-yl)carbamoyl)quinoxalin-2-yl)pentanoic acid] registered a Ki ([3H]PGD2 competition, Table B) of 0.1 to 2 nM.
